# Data: patent US20230002346A1, “NEW COMPOUNDS AND METHODS” (BenevolentAl Bio Limited, priority 2019, published 2023)
# Tests used:
# [1] = system: 87 targets across GPCRs, ion channels, and enzymes; test: Eurofins SafetyScreen panel; details: top concentration of 10 μM
# From the text: Example 50 was screened against the Eurofins SafetyScreen™ panel of 87 targets across GPCRs, ion channels, and enzymes.
# [2] = system: Salmonella typhimurium, strains TA98 and TA100; test: Ames assay (Bacterial Reverse Mutation Test); format: cell-based; details: TA98 and TA100, presence and absence of S-9 mix, up to 5000 μg/plate
# Method: Examples 50, 52 and 54 were tested, in vitro, for their ability to induce mutations in 2 histidine dependent auxotrophic mutants of Salmonella typhimurium, strains TA98 and TA100. The mutation screen was conducted using the plate incorporation method and was performed in both the presence and absence of S-9 mix (a liver post-mitochondrial fraction derived from the livers of Aroclor 1254 treated rats). The bacteria were exposed to the test items dissolved in DMSO, which was also the negative Control. The test items were tested up to the regulatory maximum dose level. The dose levels used were 5, 15, 50, 150, 500, 1500 or 5000 μg/plate, unless the highest treatment level of the test items was limited by solubility, or toxicity against the background bacterial lawn. Dose levels were expressed in terms of the free base.
# There were no increases of 2-fold or greater in revertant numbers compared with negative Control values in either strain at any dose level in the presence or absence of S-9 mix, so Examples 50, 52 and 54 were not mutagenic in the Bacterial Reverse Mutation (i.e. Ames) Test under the conditions of this screen.
# hERG channel = target: T1, hERG channel (Homo sapiens, UniProt Q12809); test: hERG assay (QPatch automated patch clamp, CHO cells); format: cell-based; details: CHO cells expressing hERG, whole-cell patch clamp, 0.003 μM to 10 μM
# T1 construct: expressed in transfected cells
# From the text: The human ether-a-go-go related gene (hERG) potassium channel (Kv11.1) contributes to human cardiac action potential repolarisation. Inhibition of hERG channels can prolong the human cardiac action potential, resulting in QTc prolongation and potentially lethal arrhythmias (e.g. Torsade de Pointes).
# Test samples were screened against the hERG channel on a QPatch 48 gigaseal automated patch clamp platform, using a Chinese Hamster Ovary (CHO) cell line stably expressing the human ether-á-go-go related gene, which encodes the hERG channel. All recordings were made in the conventional whole-cell configuration and performed at RT ([…]) using standard single hole chips (Rchip 1.5-4M0). Series resistance (4-15Mc) was compensated by >80%. Currents were elicited from a holding potential of −90 mV using the industry standard “^+40/−40” voltage protocol, which was applied at a stimulus frequency of 0.1 Hz. On achieving the whole-cell configuration, vehicle (0.1% DMSO v/v in external recording solution) was applied to each cell in two bolus additions with a 2 min recording period between each addition. Following the vehicle period, eight increasing concentrations of test sample were applied from 0.003 μM to 10 μM as a single bolus addition per test concentration, and the effects on hERG tail current amplitude measured during the 2 min recording period. Each eight-point concentration-response curve was constructed using cumulative single sample additions of each concentration to the same cell. The positive control used in this study was verapamil hydrochloride (Tocris, Cat #0654, Batch #5A/61673) and prepared to a stock concentration of 10 mM in 100% DMSO and kept as frozen aliquots.
# Data analysis: All cells passing the QC parameters (i.e. >200 pA outward current, membrane resistance and rundown) are selected as ‘passed QC’ using the QPatch software, which then calculates the mean peak current for the last three sweeps at the end of each concentration application period from the cursor positions defined. Percent inhibition is calculated for each test concentration application period as the reduction in mean cursor value (peak current or charge) relative to the cursor value measured at the end of the control (i.e. vehicle) period. The percent inhibition values from each cell are used to construct concentration-response curves employing a four parametric logistic fit with 0 and 100% inhibition levels fixed at very low and very high concentrations, respectively, and a free Hill slope factor. The IC50 (50% inhibitory concentration) and Hill coefficient are then determined, but only data from cells with Hill slopes within 0.5>nH<2.0 are included. The IC50 data reported below represents the mean (and S.D.) of at least three separate cells (N≥3). […] Compounds of the invention show reduced hERG inhibitory activity compared to the reference examples.
# [3] = Brain to plasma (B:P) ratio in rat; format: in vivo, Sprague Dawley Rats; details: male, Sprague Dawley, iv, i.v. 1.5 mg/kg, 3.3% NMP in 30% HPBC in water, timepoints averaged 0.5-1 h
# [4] = Kinetic aqueous solubility assay; format: physicochemical; details: aqueous buffer, kinetic from dmso stock, 0.05M potassium phosphate buffer pH 7.4, 250 μM spike, RT
# Method: Using a 10 mM stock solution of test compound in 100% DMSO, test compounds were spiked into 0.05M potassium phosphate buffer (pH 7.4) at a final concentration of 250 μM. Samples in buffer (n=2 aqueous samples, in 96-well plates) were allowed to equilibrate at RT on an orbital shaker for 30 min (300 rpm) to induce precipitation of test compounds. The appearance of each sample was determined by visual examination and noted (clear, cloudy, precipitate observed etc.). […] The concentration of compound in phosphate buffer filtrate was determined by comparing the UV absorbance peak area of each replicate against that of the calibration standards. […] Compounds of the invention have much improved solubility compared to the reference examples.
# [5] = Brain to plasma (B:P) ratio in rat; format: in vivo, Sprague Dawley Rats; details: male, Sprague Dawley, po, p.o. 3.0 mg/kg
# Method: Male Sprague Dawley Rats 300-350 g (Charles River, UK) were group housed, n=3, under a 12 h light/dark cycle with food and water available ad libitum. At 17:00 on the day prior to dosing all food was removed. On the day of dosing animals were weighed, tail marked and dosed via oral gavage with compound at 3 mg/kg in a volume of 5 mL/kg. Animals were culled at 30 min, 1 h and 4 h post dose via intra-peritoneal administration of pentobarbital. Post mortem blood was withdrawn via cardiac puncture, and briefly stored in K2 EDTA blood tubes on ice before being spun at 14,000 g for 4 min at 4° C. Plasma was withdrawn into a 96 well plate, placed on dry ice and stored at −80° C. Brains were quickly dissected and placed on dry ice before storage at −80° C. Bioanalysis of plasma and brain samples is performed as detailed below. Methods were prepared with guidance from industry standard documents.^i,ii […] Calibration lines are prepared in control male Sprague-Dawley Rat plasma at known concentrations in the range of 1-10000 ng/mL by spiking 2.5 μL of calibration spiking solution into 25 μL control plasma. Experimental samples are thawed to RT and 25 μL aliquots are extracted alongside the calibration lines using protein precipitation (agitation for at least 5 min at RT with 400 μL of MeCN containing 25 ng/mL tolbutamide as an internal standard). Protein precipitates are separated from the extracted test compound by centrifugation at 4000 rpm for 5 min, 4° C. […] Samples are analysed by UPLC-MS/MS on either an API6500 QTrap or Waters 30 TQS mass spectrometer using previously optimised analytical MRM (multiple reaction monitoring) methods, specific to the test compound. The concentration of test compound in isolated samples is determined following analysis of the samples against the two replicates of the calibration line, injected before and after the sample set with an appropriate regression and weighting used. Only samples within 20% of the expected test concentration are included in the calibration line and any samples that fall outside of the limits of the calibration line will be deemed to be less than or above the limit of quantification (LLoQ/ALoQ). […] Calibration lines are prepared in control male Sprague-Dawley Rat brain homogenate at known concentrations in the range of 3-30000 ng/g by spiking 2.5 μL of calibration spiking solution into 25 μL control homogenate. To prepare control and experimental brain homogenates, brains are thawed, weighed and a volume of diluent added (water) in the ratio of 2 mL per gram of brain. Homogenisation of brains is performed by bead-beater homogenisation using Precellys Evolution and CK14 7 mL small ceramic bead homogenisation tubes. Aliquots of 25 μL experimental sample are extracted alongside the calibration lines using protein precipitation (agitation for at least 5 min at RT with 400 μL of MeCN containing 25 ng/mL tolbutamide as an internal standard). Protein precipitates are separated from the extracted test compound by centrifugation at 4000 rpm for 5 min, 4° C. […] Samples are analysed by UPLC-MS/MS on either an API6500 QTrap or Waters TQS mass spectrometer using previously optimised analytical MRM (multiple reaction monitoring) methods, specific to the test compound. The concentration of test compound in isolated samples is determined following analysis of the samples against the two replicates of the calibration line, injected before and after the sample set with an appropriate regression and weighting used. Only samples within 20% of the expected test concentration are included in the calibration line and any samples that fall outside of the limits of the calibration line will be deemed to be less than or above the limit of quantification (LLoQ/ALoQ). Total brain to plasma (B:P) ratios were calculated by dividing the concentration in the brain by the concentration in plasma for each timepoint. The mean brain to plasma ratio is calculated by averaging these brain to plasma ratios across certain timepoints. […]
# [6] = target: T2, Ba/F3 cells expressing BCR-ABL (Homo sapiens, UniProt P00519); test: Ba/F3 CellTiter-Glo Assay; format: cell-based; details: 48 h
# T2 construct: BCR (fusion partner); host or cells: Ba/F3 (IL-3 dependent murine pro-B cells); the other entry of the earlier key: BCR (P11274, Breakpoint cluster region protein)
# Method: The CellTiter-Glo luminescent cell viability assay is a homogeneous method of determining the number of viable cells in culture based on quantification of the ATP present. Briefly, IL-3 dependent Ba/F3 cells are modified to express BCR-ABL. Activity of the transformed kinase overrides IL3 dependency for cellular proliferation and survival. […] Test compounds were dispensed into 384 well plates using the Tecan D300e at a top final assay concentration of 10 μM with dosing normalised to 0.1% DMSO in 50 μL volume. […] Following a 60 min incubation at RT luminescence was read on the Pherastar FS reader.
# [7] = 30% HPBC in water, timepoints averaged 0.5-4 h
# T1 sequence (Q12809 whole entry): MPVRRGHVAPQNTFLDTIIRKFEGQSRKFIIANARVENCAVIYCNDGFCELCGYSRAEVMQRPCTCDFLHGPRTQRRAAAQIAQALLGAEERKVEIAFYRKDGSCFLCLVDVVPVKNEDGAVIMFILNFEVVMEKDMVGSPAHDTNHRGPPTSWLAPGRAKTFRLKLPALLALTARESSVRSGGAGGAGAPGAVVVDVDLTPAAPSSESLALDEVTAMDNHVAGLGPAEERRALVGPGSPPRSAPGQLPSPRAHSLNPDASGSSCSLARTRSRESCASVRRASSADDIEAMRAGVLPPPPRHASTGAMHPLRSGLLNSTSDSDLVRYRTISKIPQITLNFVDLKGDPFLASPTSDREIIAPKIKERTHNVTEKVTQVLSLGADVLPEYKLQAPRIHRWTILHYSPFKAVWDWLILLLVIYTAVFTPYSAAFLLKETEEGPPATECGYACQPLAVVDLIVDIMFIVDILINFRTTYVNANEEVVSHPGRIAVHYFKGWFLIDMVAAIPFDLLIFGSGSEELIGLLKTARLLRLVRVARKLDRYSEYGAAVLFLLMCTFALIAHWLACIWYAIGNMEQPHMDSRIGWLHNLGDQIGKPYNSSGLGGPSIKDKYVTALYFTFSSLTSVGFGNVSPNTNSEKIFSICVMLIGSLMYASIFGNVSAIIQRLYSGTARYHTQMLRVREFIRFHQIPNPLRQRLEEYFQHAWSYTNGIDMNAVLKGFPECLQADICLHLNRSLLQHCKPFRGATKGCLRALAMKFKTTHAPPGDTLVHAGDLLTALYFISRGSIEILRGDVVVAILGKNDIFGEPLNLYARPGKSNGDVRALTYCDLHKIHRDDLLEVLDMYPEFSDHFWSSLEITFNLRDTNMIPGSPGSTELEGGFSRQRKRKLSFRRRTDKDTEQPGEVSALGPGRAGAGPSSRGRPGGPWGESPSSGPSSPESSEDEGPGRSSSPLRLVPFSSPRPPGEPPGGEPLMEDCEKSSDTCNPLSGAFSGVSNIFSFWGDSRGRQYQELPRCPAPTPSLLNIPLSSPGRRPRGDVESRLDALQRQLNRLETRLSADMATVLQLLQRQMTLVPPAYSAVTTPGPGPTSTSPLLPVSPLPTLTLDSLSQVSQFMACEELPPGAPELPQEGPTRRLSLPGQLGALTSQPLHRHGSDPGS
# T2 sequence (P00519 28-1130 limits assumed): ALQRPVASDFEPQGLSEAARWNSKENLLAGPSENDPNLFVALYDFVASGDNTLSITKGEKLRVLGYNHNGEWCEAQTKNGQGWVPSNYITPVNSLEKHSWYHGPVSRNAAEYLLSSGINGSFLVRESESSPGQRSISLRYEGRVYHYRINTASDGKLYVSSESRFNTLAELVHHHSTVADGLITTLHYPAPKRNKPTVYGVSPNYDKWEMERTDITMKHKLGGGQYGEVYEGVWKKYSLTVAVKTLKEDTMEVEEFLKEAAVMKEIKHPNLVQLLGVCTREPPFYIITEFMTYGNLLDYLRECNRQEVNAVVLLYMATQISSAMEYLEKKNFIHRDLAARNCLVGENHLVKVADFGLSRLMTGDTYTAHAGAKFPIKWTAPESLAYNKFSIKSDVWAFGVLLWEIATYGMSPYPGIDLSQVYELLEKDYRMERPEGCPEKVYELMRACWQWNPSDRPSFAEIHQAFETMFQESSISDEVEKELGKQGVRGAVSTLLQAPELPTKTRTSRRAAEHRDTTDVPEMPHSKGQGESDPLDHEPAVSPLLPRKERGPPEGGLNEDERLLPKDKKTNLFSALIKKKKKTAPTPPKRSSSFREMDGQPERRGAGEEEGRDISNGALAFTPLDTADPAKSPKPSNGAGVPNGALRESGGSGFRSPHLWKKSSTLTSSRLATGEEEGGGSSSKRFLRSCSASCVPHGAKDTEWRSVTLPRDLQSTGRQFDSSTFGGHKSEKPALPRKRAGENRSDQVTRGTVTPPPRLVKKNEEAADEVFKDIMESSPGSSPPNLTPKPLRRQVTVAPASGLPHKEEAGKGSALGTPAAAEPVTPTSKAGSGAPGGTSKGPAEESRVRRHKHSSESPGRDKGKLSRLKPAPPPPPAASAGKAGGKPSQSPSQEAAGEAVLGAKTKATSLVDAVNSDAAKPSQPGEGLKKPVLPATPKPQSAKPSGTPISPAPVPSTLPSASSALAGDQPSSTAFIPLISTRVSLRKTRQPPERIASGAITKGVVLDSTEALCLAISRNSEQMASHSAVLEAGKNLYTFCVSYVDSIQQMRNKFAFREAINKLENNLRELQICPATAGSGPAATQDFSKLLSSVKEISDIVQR
SMILES,solubility at 30 min [4],IC50 (hERG channel),other results
"O=C(Nc1ccc(OC(F)(F)F)cc1)c1ccc(=O)n(-c2cncnc2)c1 [Example 50, 6-Oxo-1-(pyrimidin-5-yl)-N-[4-(trifluoromethoxy)phenyl]-1.6-dihydropyridine-3-carboxamide]",,> 10 µM,number of 87 targets inhibited >50% [1]: 2; maximum inhibition ([1]; 87 targets): 65%; mutagenicity in the Bacterial Reverse Mutation (Ames) Test [2]: not mutagenic
"Cn1cc(-n2cc(C(=O)Nc3ccc(OC(F)(F)Cl)cc3)ccc2=O)cn1 [Example 52, N-[4-[Chloro(difluoro)methoxy]phenyl]-1-(1-methylpyrazol-4-yl)-6-oxo-pyridine-3-carboxamide]",160 µM,> 10 µM,mutagenicity in the Bacterial Reverse Mutation (Ames) Test [2]: not mutagenic
"O=C(Nc1ccc(OC(F)(F)Cl)cc1)c1ccc(=O)n(-c2cccnc2)c1 [Example 53, N-[4-[Chloro(difluoro)methoxy]phenyl]-6-oxo-1-(3-pyridyl)pyridine-3-carboxamide]",170 µM,> 10 µM,"Kp ([5]; 5% NMP in 30% HPBC in water, timepoints averaged 0.5-1 h): 0.82"
"O=C(Nc1ccc(OC(F)(F)Cl)cc1)c1ccc(=O)n(-c2ccc[n+]([O-])c2)c1 [Example 78, 5-{[4-(Chlorodifluoromethoxy)phenyl]carbamoyl}-2-oxo-2H-[1.3′-bipyridin]-1′-ium-1′-olate]",150 µM,,IC50 [6]: 0.151 to 1 µM
"Cn1cc(-n2cc(C(=O)Nc3ccc(OC(F)(F)Cl)cc3)cc(C#N)c2=O)cn1 [Example 79, N-[4-(Chlorodifluoromethoxy)phenyl]-5-cyano-1-(1-methyl-1H-pyrazol-4-yl)-6-oxo-1.6-dihydropyridine-3-carboxamide]",,,IC50 [6]: 0.151 to 1 µM

# Now from value to compound, other results behind:
solubility at 30 min [4],SMILES,IC50 (hERG channel),other results
190 µM,"O=C(Nc1ccc(OC(F)(F)Cl)cc1)c1ccc(=O)n(-c2cncnc2)c1 [Example 51, N-[4-(Chlorodifluoromethoxy)phenyl]-6-oxo-1-(pyrimidin-5-yl)-1,6-dihydropyridine-3-carboxamide]",> 10 µM,Kp [3]: 0.67
160 µM,"COc1cncc(-n2cc(C(=O)Nc3ccc(OC(F)(F)Cl)cc3)ccc2=O)c1 [Example 61, N-[4-[Chloro(difluoro)methoxy]phenyl]-1-(5-methoxy-3-pyridyl)-6-oxo-pyridine-3-carboxamide]",> 10 µM,"Kp [5, 7]: 0.45"
120 µM,"O=C(Nc1ccc(OC(F)(F)Cl)cc1)c1ccc(=O)n(-c2cncc(Cl)c2)c1 [Example 63, N-[4-[Chloro(difluoro)methoxy]phenyl]-1-(5-chloro-3-pyridyl)-6-oxo-pyridine-3-carboxamide]",> 10 µM,"Kp [5, 7]: 0.64"
